Measured values as given in patent EP4692079A1, “CYP11A1 INHIBITOR AND USE THEREOF” (priority 2023, dated 2024).
Read-outs that look alike come from different tables or passages of the source.

What was measured:
[1] = test system: testosterone level in NCI-H295R cells; assay: cells; format: cell-based; settings: Homo sapiens, NCI-H295R, 72 h; for IC50: read-out: Testosterone level in H295R (Elisa) IC50 nM
Procedure: The purpose of the experimental study was intended to detect the testosterone level in the NCI-H295R cells by adopting the Enzyme linked immunosorbent assay (ELISA), so as to evaluate the inhibitory effects of the compounds on the testosterone level in the NCI-H295R cells.
The H295R cells were purchased from ATCC, the cell complete medium contained DMEM: F12+ 10% FBS +0.00625 mg/ml insulin +0.00625 mg/ml transferrin+6.25 ng/ml selenium +1.25 mg/ml BSA+0.00535 mg/ml linoleic acid, and the cells were cultured in a 37°C, 5% CO2 incubator. The cells in the exponential growth phase were collected, and cultured in a cytokine-free medium (phenol red 1640-free +1% PS+10% css FBS+1.25 mg/ml BSA +0.00625 mg/ml insulin + 0.00625 mg/ml transferrin+6.25 ng/ml selenium+0.00535 mg/ml linoleic acid) for three days. The cells in the exponential growth phase were collected on the third day. The cell suspension was adjusted with a cytokine-free medium to a corresponding concentration and plated at 60000 cells/well, with the volume being 90 µL/well. Subsequently, 10 µL of the compounds at different concentrations was added and the plate was incubated in a CO2 incubator for three days. After the incubation was completed, according to the operation instructions for testosterone Elisa kit (Beyotime, PT872), 50 µL of the cell culture supernatant was collected from each well and centrifuged at 500 g for 5 min at room temperature and then the resulting supernatant was collected. The samples were added to the corresponding wells at 25 µl/well, and then formulated horseradish peroxidase labelled testosterone was added at 75 µl/well. The mixture was fully mixed for 10 seconds. The reaction wells were sealed with a plate-sealing film (white) and the mixture was incubated at room temperature in the dark for 120 min. The plate was washed three times with a volume of 300 µl per well, and then placed onto thick absorbent paper and dried. Chromogenic reagent TMB solution was added at 100 µl/well. The reaction wells were sealed with a plate-sealing film (white) and the mixture was incubated at room temperature in the dark for 15-20 min. Subsequently, a termination solution was added at 50 µl/well, and after the mixture was fully mixed, the absorbance value OD450 was immediately measured. The absorbance readings were processed using Graphpad Prim 8.0 software and S-shaped concentration curves were plotted and the IC50 values were calculated using a four-parameter non-linear regression model.

[2] = test system: pregnenolone level in NCI-H295R cells; assay: cells; format: cell-based; settings: Homo sapiens, 72 h; for IC50: read-out: Pregnenolone level in H295R (Elisa) IC50 nM; for inhibition at 0.1 µM: read-out: Pregnenolone level in H295R (Elisa) inh.% 100 nM; for inhibition at 1 µM: read-out: Pregnenolone level in H295R (Elisa) inh.% 1000 nM
Procedure: 2. The purpose of the experimental study was intended to detect the pregnenolone level in the NCI-H295R cells by adopting the Enzyme linked immunosorbent assay (ELISA), so as to evaluate the inhibitory effects of the compounds on the pregnenolone level in the NCI-H295R cells.
The H295R cells were purchased from ATCC (CRL-2128), the cell complete medium contained DMEM: F12+ 10% FBS +0.00625 mg/ml insulin+0.00625 mg/mL transferrin+6.25 ng/mL selenium+1.25 mg/mL BSA+0.00535 mg/mL linoleic acid, and the cells were cultured in a 37°C, 5% CO2 incubator. The cells in the exponential growth phase were collected, and cultured in a cytokine-free medium (phenol red 1640-free +1% PS+10% css FBS+1.25 mg/mL BSA +0.00625 mg/mL insulin+0.00625 mg/mL transferrin+6.25 ng/mL selenium+0.00535 mg/mL linoleic acid) for three days. The cells in the exponential growth phase were collected on the third day. The cell suspension was adjusted with a cytokine-free medium to a corresponding concentration and plated at 60000 cells/well, with the volume being 90 µL/well. Subsequently, 10 µL of the compounds at different concentrations was added and the plate was incubated in a CO2 incubator for three days. After the incubation was completed, the cell culture supernatant was collected and centrifuged at 2°C-8°C at 800×g for 10 min. The resulting supernatant was collected. Determination was carried out according to the operation instructions for pregnenolone Elisa kit (Antibodies-A73791), and the OD450 signal was read.
2.1 Standard curve plotting. The standard concentration was taken as the abscissa and the OD450 value as the ordinate, the coordinate points of various standards were connected with a smooth line and a curve was fitted according to the four parameter logistic (4-PL) method.
2.2 Sample quantification: The corresponding concentration (CONC) of testosterone/pregnenolone in the sample was calculated using the absorbance value of the sample and the standard curve. According to formula (1), the inhibition rate of the compound at various concentrations was calculated, and S-shaped concentration curves were plotted and the IC50 values (i.e., concentration of the compound at which the inhibition rate was 50%) were calculated using a three parameter non-linear regression model in Graphpad Prim 8.0 software. CONC cpd was the concentration of the treated group, and CONC ctrl was the average concentration value of the solvent control group. Inhibition rate% = 100%−CONCcpd /CONCctrl × 100% [formula] Table 3 Inhibitory effects of compounds on pregnenolone level in NCI-H295R cells

[3] = Pharmacokinetic test in rats; format: in vivo; settings: rat, male SD rats, plasma; for Vd: read-out: Vdss
Procedure: 3.1 Experimental animals: Male SD rats (about 220 g, 6-8 weeks old, 6 rats/compound) were purchased from Chengdu Dossy Experimental Animals Co., Ltd.
3.2 Experimental design: On the day of the experiment, the SD rats were randomly grouped by body weight. […] Table 4 Administration information
Before and after the administration, 0.1 ml of blood was taken from the orbit of the animals under isoflurane anaesthesia and placed in an EDTAK2 centrifuge tube. The blood was centrifuged at 5000 rpm and 4°C for 10 min to collect plasma. […] Before analysis and detection, all samples were stored at -80°C. Table 5 Pharmacokinetic parameters of test compounds in plasma of rats

[4] = Pharmacokinetic test in mice; format: in vivo; settings: mouse, male ICR mice, plasma; for Vd: read-out: Vdss
Procedure: 4.1. Experimental animals: Male ICR mice, 20-25 g, 6 mice/compound, were purchased from Chengdu Dossy Experimental Animals Co., Ltd.
4.2 Experimental design: on the day of the experiment, the ICR mice were randomly grouped according to their body weights. […] Table 6 Administration information
Before and after administration, 0.06 mL of blood was taken from the orbit under isoflurane anaesthesia and placed in an EDTAK2 centrifuge tube. The tube was centrifuged at 5000 rpm at 4°C for 10 min, and plasma was collected. […] Before analysis and detection, all samples were stored at -80°C, and the samples were quantitatively analysed by LC-MS/MS.

[5] = read-out: Testosterone level in H295R (Elisa) inh.% 100 nM
[6] = read-out: Testosterone level in H295R (Elisa) inh.% 1000 nM
[7] = po, intragastric administration (10 mg/kg)
[8] = intravenous administration (2.5 mg/kg)
[9] = read-out: Testosterone level in H295R (Elisa) inh.% 100 nM, 100 nM compound, NCI-H295R cells, three days incubation
[10] = read-out: Testosterone level in H295R (Elisa) inh.% 1000 nM, 1000 nM compound, NCI-H295R cells, three days incubation

O=C(N[C@H]1CC[C@H](/C=C/c2coc(CN3Cc4ccc(C(F)(F)F)cc4C3)cc2=O)CC1)C1CC1 [Compound 61]
IC50 [1]: 162 nM
inhibition at 0.1 µM [1, 5]: 71%
inhibition at 1 µM [1, 6]: 79%
IC50 [2]: 370 nM
AUC(0-t) [3, 7]: 17400 ng·h/mL
half-life [3, 7]: 3.03 h
AUC(0-t) [3, 8]: 5590 ng·h/mL
clearance [3, 8]: 7.49 mL/min/kg
half-life [3, 8]: 2.58 h
Vd [3, 8]: 1.42 L/kg
AUC(0-t) [4, 7]: 32100 ng·h/mL
half-life [4, 7]: 3.47 h
AUC(0-t) [4, 8]: 6080 ng·h/mL
clearance [4, 8]: 6.8 mL/min/kg
half-life [4, 8]: 3.73 h
Vd [4, 8]: 1.75 L/kg

[2H]C([2H])([2H])n1cc(C(=O)N[C@H]2CC[C@H](CCc3coc(CN4Cc5ccc(C(F)(F)F)cc5C4)cc3=O)CC2)cn1 [Compound 118]
IC50 [1]: 36 nM
inhibition at 0.1 µM [1, 5]: 70%
inhibition at 1 µM [1, 6]: 83%
IC50 [2]: 71 nM
AUC(0-t) [3, 7]: 11400 ng·h/mL
half-life [3, 7]: 4.41 h
AUC(0-t) [3, 8]: 5200 ng·h/mL
clearance [3, 8]: 8.18 mL/min/kg
half-life [3, 8]: 1.58 h
Vd [3, 8]: 0.755 L/kg
AUC(0-t) [4, 7]: 28000 ng·h/mL
half-life [4, 7]: 3.45 h
AUC(0-t) [4, 8]: 7980 ng·h/mL
clearance [4, 8]: 5.22 mL/min/kg
half-life [4, 8]: 2.78 h
Vd [4, 8]: 0.966 L/kg

CS(=O)(=O)N1CC(OC(=O)N2CCC(COc3coc(CN4Cc5ccc(C(F)(F)F)cc5C4)cc3=O)CC2)C1 [Compound 17]
inhibition at 0.1 µM [1, 9]: 91.6%
inhibition at 1 µM [1, 10]: 93.6%
IC50 [2]: 773 nM
inhibition at 0.1 µM [2]: 64.9%
inhibition at 1 µM [2]: 75.2%
AUC(0-t) [3, 7]: 5240 ng·h/mL
half-life [3, 7]: 2.72 h
AUC(0-t) [3, 8]: 1680 ng·h/mL
clearance [3, 8]: 24.4 mL/min/kg
half-life [3, 8]: 1.59 h
Vd [3, 8]: 2.53 L/kg
AUC(0-t) [4, 7]: 17800 ng·h/mL
half-life [4, 7]: 2.42 h
AUC(0-t) [4, 8]: 4790 ng·h/mL
clearance [4, 8]: 8.73 mL/min/kg
half-life [4, 8]: 2.96 h
Vd [4, 8]: 1.81 L/kg

O=C(N[C@H]1CC[C@H](/C=C/c2coc(CN3Cc4ccc(C(F)(F)F)cc4C3)cc2=O)CC1)C1CC(F)(F)C1 [Compound 88]
IC50 [1]: 59 nM
inhibition at 0.1 µM [1, 5]: 76%
inhibition at 1 µM [1, 6]: 86%
IC50 [2]: 94 nM
inhibition at 0.1 µM [2]: 41.6%
inhibition at 1 µM [2]: 64.5%
AUC(0-t) [4, 7]: 23600 ng·h/mL
half-life [4, 7]: 4.48 h
AUC(0-t) [4, 8]: 8550 ng·h/mL
clearance [4, 8]: 4.82 mL/min/kg
half-life [4, 8]: 4.49 h
Vd [4, 8]: 1.54 L/kg

[2H]C([2H])([2H])n1cc(C(=O)N[C@H]2CC[C@H](/C=C/c3coc(CN4Cc5ccc(C(F)(F)F)cc5C4)cc3=O)CC2)cn1 [Compound 81]
IC50 [1]: 102 nM
inhibition at 0.1 µM [1, 5]: 63%
inhibition at 1 µM [1, 6]: 83%
IC50 [2]: 146 nM
AUC(0-t) [3, 7]: 40500 ng·h/mL
half-life [3, 7]: 4.29 h
AUC(0-t) [3, 8]: 12900 ng·h/mL
clearance [3, 8]: 3.22 mL/min/kg
half-life [3, 8]: 3.18 h
Vd [3, 8]: 0.704 L/kg
AUC(0-t) [4, 7]: 68500 ng·h/mL
half-life [4, 7]: 5.38 h
AUC(0-t) [4, 8]: 22600 ng·h/mL
clearance [4, 8]: 1.69 mL/min/kg
half-life [4, 8]: 6.99 h
Vd [4, 8]: 0.86 L/kg

O=C(N[C@H]1CC[C@H](COc2coc(CN3Cc4ccc(C(F)(F)F)cc4C3)cc2=O)CC1)C1CC1 [Compound 15]
IC50 [1]: 13 nM
inhibition at 0.1 µM [1, 9]: 51%
inhibition at 1 µM [1, 10]: 84.2%
IC50 [2]: 382 nM
AUC(0-t) [4, 7]: 25400 ng·h/mL
half-life [4, 7]: 3.19 h
AUC(0-t) [4, 8]: 6700 ng·h/mL
clearance [4, 8]: 6.21 mL/min/kg
half-life [4, 8]: 3.54 h
Vd [4, 8]: 1.61 L/kg
